Converted amounts (≈) assume the structure as drawn. *1 amine or outer side, *2 acyl side, *3 side chain or, on linkers, in order; H or OH if unused. Where a SMILES comes first, the peptide text is derived from it. Bridges are numbered along the chain shown (N, C = ends). [ ]: non-standard residue; d: D form. The star is where a group is joined. ξ: configuration not given here. Phe(3R-OH) = O=C([C@@H](N[*:1])[C@H](O[*:3])c1ccccc1)[*:2]; Asn(3S-OH) = NC(=O)[C@@H](O)[C@H](N)C(=O)O; Leu(3R-OH) = CC(C)[C@@H](O)[C@H](N)C(=O)O; d(tBuAla) = CC(C)(C)C[C@@H](N)C(=O)O; tBuAla = CC(C)(C)C[C@H](N)C(=O)O; aThr = C[C@H](O)[C@H](N)C(=O)O; ξIle = CC[C@H](C)C(N)C(=O)O; Cbz = O=C(OCc1ccccc1)*
Assays:
[1] = tested on: Streptococcus pneumoniae G9a; format: cell-based; conditions: G9a
Protocol: (§1) Determination of the Minimum Inhibitory Concentration (MIC):
(§2) The MIC is determined in the liquid dilution test in accordance with the NCCLS guidelines. Overnight cultures of Staphylococcus aureus 133, Enterococcus faecalis 27159, E. faecium 4147 and Streptococcus pneumoniae G9a are incubated with the desired test substances in a 1:2 dilution series. The MIC determination is carried out with a cell count of 10^5 microbes per ml in Isosensitest medium (Difco, Irvine/USA), with the exception of S. pneumoniae which is tested in BHI broth (Difco, Irvine/USA) with 10% bovine serum with a cell count of 10^6 microbes per ml. The cultures are incubated at 37° C. for 18-24 hours, S. pneumoniae in the presence of 10% CO2.
(§3) The MIC is defined as the lowest concentration of each substance at which visible bacterial growth no longer occurs. The MIC values are reported in μg/ml.

[2] = tested on: Staphylococcus aureus 133; format: cell-based; conditions: 133
Protocol: as §1, §2, §3

[3] = tested on: E. faecium L4001; format: cell-based, Enterococcus faecium; conditions: L4001
[4] = tested on: E. faecalis ICB 27159; format: cell-based, Enterococcus faecalis; conditions: ICB 27159
Protocol: as §1, §2, §3

Row | Compound | MIC S. pneumoniae [1] [µg/mL] | MIC S. aureus 133 [2] [µg/mL] | MIC E. faecium L4001 [3] [µg/mL] | MIC E. faecalis ICB 27159 [4] [µg/mL]
1 | CC[C@H](C)[C@@H]1NC(=O)[C@@H](CCCNC(=N)N)NC(=O)[C@H](CC(C)C)NC(=O)[C@H]([C@H](O)C(C)C)NC(=O)[C@@H](NC(=O)[C@H](CC(C)(C)C)NC(=O)[C@H](N)CC(C)(C)C)[C@@H](c2ccccc2)OC(=O)[C@H](CO)NC(=O)[C@H]([C@H](O)C(N)=O)NC(=O)CNC(=O)[C@H]([C@H](C)O)NC1=O.O=C(O)C(F)(F)F.O=C(O)C(F)(F)F [Example 68] (H-[d(tBuAla)][tBuAla][Phe(3R-OH)][Leu(3R-OH)]L[dR]I[aThr]G[Asn(3S-OH)]S; ester 3-C) | 0.031 | 0.125 | 0.5 | 0.5
2 | CC[C@H](C)[C@@H]1NC(=O)[C@@H](CCCNC(=N)N)NC(=O)[C@H](CC(C)C)NC(=O)[C@H]([C@H](O)C(C)C)NC(=O)[C@@H](NC(=O)[C@H](CC(C)C)NC(=O)[C@@H](N)Cc2ccccc2)[C@@H](c2ccccc2)OC(=O)[C@H](CO)NC(=O)[C@H]([C@H](O)C(N)=O)NC(=O)CNC(=O)[C@H]([C@H](C)O)NC1=O [Example 48, L-Phenylalanyl-de(1-D-leucyl)lysobactin bistrifluoroacetate] (H-FL[Phe(3R-OH)][Leu(3R-OH)]L[dR]I[aThr]G[Asn(3S-OH)]S; ester 3-C) | 0.125 (≈ 0.0954 µM) | 0.125 (≈ 0.0954 µM) | 0.25 (≈ 0.191 µM) | 0.5 (≈ 0.382 µM)
3 | CC[C@H](C)[C@@H]1NC(=O)[C@@H](CCCNC(=N)N)NC(=O)[C@H](CC(C)C)NC(=O)[C@H]([C@H](O)C(C)C)NC(=O)[C@@H](NC(=O)[C@H](Cc2ccccc2)NC(=O)[C@H](N)Cc2ccccc2)[C@@H](c2ccccc2)OC(=O)[C@H](CO)NC(=O)[C@H]([C@H](O)C(N)=O)NC(=O)CNC(=O)[C@H]([C@H](C)O)NC1=O.O=C(O)C(F)(F)F.O=C(O)C(F)(F)F [Example 82, D-Phenylalanyl-L-phenylalanyl-de(1-D-leucyl-2-L-leucyl)lysobactine bistrifluoroacetate] (H-[dF]F[Phe(3R-OH)][Leu(3R-OH)]L[dR]I[aThr]G[Asn(3S-OH)]S; ester 3-C) | 0.125 | 0.125 | 0.5 | 1
4 | CC[C@H](C)C1NC(=O)[C@@H](CCCNC(=N)N)NC(=O)[C@H](CC(C)C)NC(=O)[C@H]([C@H](O)C(C)C)NC(=O)[C@@H](NC(=O)[C@H](CCCCNC(=O)OCc2ccccc2)NC(=O)[C@H](N)CC(C)(C)C)[C@@H](c2ccccc2)OC(=O)[C@H](CO)NC(=O)[C@H]([C@H](O)C(N)=O)NC(=O)CNC(=O)[C@H]([C@H](C)O)NC1=O.O=C(O)C(F)(F)F.O=C(O)C(F)(F)F (stereo partly drawn) [Example 107, {(3-tert-Butylalanyl)-[N^6-(benzyloxycarbonyl)lysyl]}-de(1-D-leucyl-2-L-leucyl)lysobactin bistrifluoroacetate] (H-[d(tBuAla)]K(Cbz)[Phe(3R-OH)][Leu(3R-OH)]L[dR][ξIle][aThr]G[Asn(3S-OH)]S; ester 3-C) | 0.25 | 0.25 | 0.5 | 1
5 | CC[C@H](C)[C@@H]1NC(=O)[C@@H](CCCNC(=N)N)NC(=O)[C@H](CC(C)C)NC(=O)[C@H]([C@H](O)C(C)C)NC(=O)[C@@H](NC(=O)[C@H](Cc2ccccc2)NC(=O)[C@H](N)CC(C)C)[C@@H](c2ccccc2)OC(=O)[C@H](CO)NC(=O)[C@H]([C@H](O)C(N)=O)NC(=O)CNC(=O)[C@H]([C@H](C)O)NC1=O.O=C(O)C(F)(F)F.O=C(O)C(F)(F)F [Example 74, D-Leucyl-L-phenylalanyl-de(1-D-leucyl-2-L-leucyl)lysobactin bistrifluoroacetate] (H-[dL]F[Phe(3R-OH)][Leu(3R-OH)]L[dR]I[aThr]G[Asn(3S-OH)]S; ester 3-C) | 0.063 | 0.125 | 0.5 | 1

— US7368424B2, “Acylated nonadepsipeptides” (AiCuris GmbH & Co. KG, priority 2003, dated 2008)
